d = 2'-deoxy (DNA)

We go through three compounds from article PMC4464647, “ANO1 (TMEM16A) in pancreatic ductal adenocarcinoma (PDAC)” (Pflugers Archiv, 2014).

Common to all, as to format: cell-based, human
The test system of series [1] is BxPC-3 cells. In words: Fura-2 measurement of free intracellular calcium, ATP stimulation. Conditions: for effect on basal [Ca2+]i: BxPC-3, inhibitor 20 μM. How it is done:
(§1) HPDE and BxPC-3 cells were incubated with 2 μM Fura-2 AM (Sigma-Aldrich, Denmark) for 30 min at 37 °C. Cells were subsequently washed with Krebs solution containing (in mM) 150 NaCl, 6 KCl, 1.5 CaCl2, 1 MgCl2, 10 glucose, and 10 HEPES; pH was adjusted to 7.4 using NaOH. Coverslips were mounted on a recording chamber. In the beginning of the experiment, cells were perfused with Krebs solution at 4 ml/min until baseline was stable. […] Changes in [Ca^2+]i were measured by a TIRF iMIC microscope (TILL Photonics, Germany). Fura-2 AM loaded cells were illuminated at 340 nm for 80 ms and 380 nm for 80 ms at 1 s intervals using a TILL Polychrome monochromator. Five hundred-nanometer emission images were captured by an image-intensifying, charge-coupled device (CCD) camera (TILL Photonics, Germany) and digitized by an image processing system (TILL Photonics, Germany). The monochromator and CCD camera were controlled by LA Live Acquisition software, which was also used for image analysis. The [Ca^2+]i was presented as the Fura-2 ratio of the fluorescence signals obtained at 340/380 nm.
(§2) Fig. 8 Cl^− channel inhibitors alter ATP-induced Ca^2+ signals. Intracellular Ca^2+ measurements in FURA-2 loaded HPDE and BxPC-3 cells. a Representative single-cell traces of individual experiments. Different substances were applied as indicated. […] (n) = number of individual experiments; each containing between 5–45 single cells.***p ≤ 0.001 when compared to no inhibitor condition; ^## p ≤ 0.01 when compared with HPDE no inhibitor
(§3) Activation of CaCC requires an increase in [Ca^2+]i, which can be achieved by stimulation of receptors such as purinergic receptors. Therefore, we studied the effect of Cl^− channel inhibitors on changes in [Ca^2+]i induced by purinergic signaling. We chose HPDE cells with very low expression levels of ANO1 and the highly ANO1 overexpressing cell line BxPC-3 for investigation. Fura-2 loaded HPDE and BxPC-3 cells were stimulated with ATP (10 μM) (Fig. 8) or exposed to the inhibitor prior to stimulation. ATP stimulation caused a 0.46 ± 0.03 peak increase in the Fura-2 ratio in HPDE and 0.55 ± 0.02 in BxPC-3 cells. […] However, no effect of the inhibitor on basal Ca^2+ level was observed.
A general note: A change in cytosolic calcium serves as a functional read-out for many receptors and channels.

The test system of another series is HPDE cells. The description is as above. The settings on record: for effect on basal [Ca2+]i: inhibitor 20 μM. Here is the method: as §1, §2, §3
Series [2] deals with BxPC-3 cells. In words: Scratch wound healing assay. Conditions: 5 μM aphidicolin; for effect on wound closure / migratory behavior: BxPC-3, inhibitor 20 μM. Here is the method: Cells were seeded into Essen ImageLock 96-well plates. Cells were transfected with siRNA shortly after cells completely attached at 80 % confluency. […] The wound confluence was obtained and analyzed by using the IncuCyte phase-contrast imaging and scratch wound assay system and software (Essen Bioscience, USA). Wound closure was assessed by comparing the mean relative wound density (%RWD) according to the following formula: % RWD = 100 × w(t) − w(0)/[…]. Here, w(t) is the density of wounded area at time t and c(t) is the density of cell region at time t. Each experiment was conducted in triplicates.
We therefore assessed a possible contribution of ANO1 in PDAC cell migration using wound healing assay. […] The experiments were conducted in the presence of 5 μM aphidicolin to rule out a possible effect on cell proliferation. […] AsPC-1 cells were therefore not well suited for studies of lateral motility.
Fig. 9 ANO1 supports migration of PDAC cells. Wound healing assay is shown as relative wound density (density of wounded area relative to confluency of cell region) over time. Aphidicolin (5 μM) was added to stop proliferation. a AsPC-1 cells and b BxPC-3 cells after transfection with either scrambled siRNA (5 nM) or siRNA targeting ANO1 (50 nM). c BxPC-3 cells in presence of different inhibitors. Data shown represents mean ± s.e.m. of n = 4 experiments; each run was carried out in triplicates

In the case of `CC(C)(C)C1CCc2c(sc(NC(=O)c3ccco3)c2C(=O)O)C1` (stereo not drawn) [CaCCinh-A01, 6-(1,1-dimethylethyl)-2-[(2-furanylcarbonyl)amino]-4,5,6,7-tetrahydrobenzo[b]thiophene-3-carboxylic acid], the “effect on basal [Ca2+]i” value in the series with BxPC-3 cells [1] and in the series with HPDE cells was “reversible increase” throughout. Also, the “effect on wound closure / migratory behavior” value with BxPC-3 cells [2] was “seemed to slow down wound closure; however, this did not reach significance”.

As for “siRNA targeting ANO1: Predesigned siRNA oligo from Sigma-Aldrich, 5′-CCUUCAACGUCAGUGACUU[dT][dT]-3′, 5′-AAGUCACUGACGUUGAAGG[dT][dT]-3′ (RNA, 3' dTdT, backbone not given here)”, in the series with BxPC-3 cells [2] (BxPC-3, siRNA 50 nM, after 60 h), the “migration decreased to” value stood at 30 ± 8%.

Take `CCc1c(C)nc(SCC(=O)Nc2nc(-c3ccc(OC)cc3)cs2)[nH]c1=O` [T16Ainh-A01, 2-[(5-Ethyl-1,6-dihydro-4-methyl-6-oxo-2-pyrimidinyl)thio]-N-[4-(4-methoxyphenyl)-2-thiazolyl]acetamide]: the “effect on basal [Ca2+]i” value in the series with BxPC-3 cells [1] and with HPDE cells was “no effect” each time. Besides, the “ATP-induced change in Fura-2 ratio after inhibitor” value was determined as 0.42 ± 0.03 with BxPC-3 cells [1] (BxPC-3, inhibitor 20 μM before ATP 10 μM) and 0.32 ± 0.03 with HPDE cells (inhibitor 20 μM before ATP 10 μM). Moreover, the “effect on wound closure / migratory behavior” value in the series on BxPC-3 cells [2] is on record as “no detectable effect on migratory behavior”.
